# Measurements as given in patent publication US4820695A, “C-20-dihydro-deoxy-(cyclic amino)-derivatives of macrolide antibiotics” (priority 1987, dated 1989).
# Read-outs that look alike come from different tables or passages of the source.
# What was measured:
# [1] = tested on: Staphyloccus aureus X1.1; assay: MIC, standard agar-dilution assay (Table IX); format: cell-based, Staphylococcus aureus; conditions: Staphylococcus aureus, read-out: MIC
# [2] = tested on: Staphylococcus aureus V41; assay: MIC, standard agar-dilution assay (Table IX); format: cell-based; conditions: Staphylococcus aureus V41, Penicillin-resistant strain, read-out: MIC
# [3] = tested on: Staphylococcus aureus X400; assay: MIC, standard agar-dilution assay (Table IX); format: cell-based; conditions: Staphylococcus aureus X400, Methicillin-resistant strain, read-out: MIC
# [4] = tested on: Staphylococcus aureus S13E; assay: MIC, standard agar-dilution assay (Table IX); format: cell-based; conditions: Staphylococcus aureus, S13E
# [5] = tested on: Staphylococcus epidermidis EPI1; assay: MIC, standard agar-dilution assay (Table IX); format: cell-based; conditions: Staphylococcus epidermidis EPI1; agar-dilution; read-out: MIC
# [6] = tested on: Staphylococcus epidermidis 222; assay: MIC, standard agar-dilution assay (Table IX); format: cell-based; conditions: read-out: MIC
# [7] = tested on: Streptococcus pyogenes C203; assay: MIC, standard agar-dilution assay (Table IX); format: cell-based; conditions: read-out: MIC
# [8] = tested on: Streptococcus pneumoniae Park I; assay: MIC, standard agar-dilution assay (Table IX); format: cell-based; conditions: Streptococcus pneumoniae Park I; agar-dilution; read-out: MIC
# [9] = tested on: Streptococcus Group D X66; assay: MIC, standard agar-dilution assay (Table IX); format: cell-based; conditions: read-out: MIC
# [10] = tested on: Streptococcus Group D 2041; assay: MIC, standard agar-dilution assay (Table IX); format: cell-based; conditions: GROUPD2041, read-out: MIC
# [11] = tested on: Haemophilus influenzae C.L.; assay: MIC, standard agar-dilution assay (Table IX); format: cell-based; conditions: Ampicillin-sensitive strain, read-out: MIC
# [12] = tested on: Haemophilus influenzae 76; assay: MIC, standard agar-dilution assay (Table IX); format: cell-based; conditions: Haemophilus influenzae 76, Ampicillin-resistant strain, read-out: MIC
# [13] = tested on: Escherichia coli N10; assay: MIC, standard agar-dilution assay (Table IX); format: cell-based; conditions: read-out: MIC
# [14] = tested on: Escherichia coli EC14; assay: MIC, standard agar-dilution assay (Table IX); format: cell-based; conditions: read-out: MIC
# [15] = tested on: Escherichia coli TEM; assay: MIC, standard agar-dilution assay (Table IX); format: cell-based; conditions: read-out: MIC
# [16] = tested on: Klebsiella X26; assay: MIC, standard agar-dilution assay (Table IX); format: cell-based; conditions: read-out: MIC
# [17] = tested on: Mycoplasma gallisepticum 29C; assay: MIC, broth-dilution microtiter test (Table X); format: cell-based; conditions: Mycoplasmoides gallisepticum, read-out: MIC
# Text: (§1) The MIC's in Table X were obtained using conventional broth-dilution microtiter tests.
# [18] = tested on: Mycoplasma hyopneumoniae S5972; assay: MIC, broth-dilution microtiter test (Table X); format: cell-based; conditions: Mesomycoplasma hyopneumoniae, read-out: MIC
# Text: as §1
# [19] = tested on: Mycoplasma hyorhinis 29E; assay: MIC, broth-dilution microtiter test (Table X); format: cell-based; conditions: read-out: MIC
# Text: as §1
# [20] = tested on: Mycoplasma synoviae 40A; assay: MIC, broth-dilution microtiter test (Table X); format: cell-based; conditions: Mycoplasmopsis synoviae, read-out: MIC
# Text: as §1
# [21] = tested on: Pasteurella hemolytica 22C; assay: MIC, broth-dilution microtiter test (Table X); format: cell-based; conditions: read-out: MIC
# Text: as §1
# [22] = tested on: Pasteurella multocida 17E; assay: MIC, broth-dilution microtiter test (Table X); format: cell-based; conditions: Bovine isolate, read-out: MIC
# Text: as §1
# [23] = tested on: Pasteurella multocida 60A; assay: MIC, broth-dilution microtiter test (Table X); format: cell-based; conditions: Avian isolate, read-out: MIC
# Text: as §1
# [24] = tested on: Staphylococcus aureus; assay: MIC, broth-dilution microtiter test (Table X); format: cell-based; conditions: read-out: MIC
# Text: as §1
# [25] = tested on: Streptococcus sp. 19F; assay: MIC, broth-dilution microtiter test (Table X); format: cell-based; conditions: read-out: MIC
# Text: as §1
# [26] = tested on: Streptococcus pyogenes C203; assay: ED50 in mice experimentally infected with S. pyogenes C203 (Table XI); format: in vivo; conditions: Streptococcus pyogenes, doses given 1 and 4 hours postinfection, read-out: ED50
# In short: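 Mice infected with S. pyogenes C203 received two doses of compound, 1 and 4 h post-infection. ED50 is the dose in mg/kg (per dose, ×2) protecting 50% of animals.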
# [27] = tested on: Pasteurella multocida; assay: Pasteurella infection in one-day-old chicks, subcutaneous administration (Table XII); format: in vivo; conditions: Administered subcutaneously, 30 mg/kg × 2, 1 and 4 hours post-challenge
# In short: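 One-day-old chicks were challenged subcutaneously with 0.1 ml of a 10^-4 dilution of a 20-h tryptose broth culture of avian P. multocida. Compounds were then given by subcutaneous injection at 30 mg/kg, at 1 and 4 hours post-challenge.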
# [28] = tested on: Pasteurella multocida; assay: Pasteurella infection in one-day-old chicks, medicated drinking water (Table XIII); format: in vivo; conditions: Administered in the available drinking water at 2 g/gal
# In short: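 One-day-old chicks were challenged subcutaneously with 0.1 ml of a 10^-4 dilution of a 20-hour tryptose broth culture of avian P. multocida. Compound was given in drinking water at 2 g/gal, available from 4 to 20 hours before challenge and throughout the 3-day test period.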
# [29] = Titratable groups in 66% aqueous DMF (Tables XIV-XVI); format: physicochemical
# Text: ^c Run in 66% aqueous DMF
# ^d Run in 66% aqueous DMF
# [30] = Titratable groups (first value)
Structure (SMILES),MIC [1] [µg/mL],MIC [2] [µg/mL],MIC [3] [µg/mL],MIC [4] [µg/mL],MIC [5] [µg/mL],MIC [6] [µg/mL],MIC [7] [µg/mL],MIC [8] [µg/mL],MIC [9] [µg/mL],MIC [10] [µg/mL],MIC [11] [µg/mL],MIC [12] [µg/mL],MIC [13] [µg/mL],MIC [14] [µg/mL],MIC [15] [µg/mL],MIC [16] [µg/mL],MIC [17] [µg/mL],MIC [18] [µg/mL],MIC [19] [µg/mL],MIC [20] [µg/mL],other results
"CCC1OC(=O)CC(O)C(C)C(OC2OC(C)C(O)C(N(C)C)C2O)C(CCN2CCCC23CCCCC3)CC(C)C(=O)C=CC(C)=CC1COC1OC(C)C(O)C(OC)C1OC (centres unmarked) [Compound D19, 20-DH-DO-20-[1-Azaspiro[4.5]decan-1-yl]desmycosin]",1,1,1,1,1,0.25,0.5,0.25,16,16,16,16,128,128,32,32,1.56,3.12,> 50,0.39,"MIC [21]: 3.12 µg/mL; MIC [22]: 3.12 µg/mL; MIC [23]: 3.12 µg/mL; MIC [24]: 0.78 µg/mL; MIC [25]: 3.12 µg/mL; ED50 ([26]; C203, Oral): 46 mg/kg; ED50 ([26]; C203, sc, Subcutaneous): 2.9 mg/kg; Number of Deaths/Number Treated [27]: 0/10; Number of Deaths/Number Treated [28]: 3/10; pKa ([29]; Titratable groups): 9.8; pKa [29, 30]: 7.9"
"CCC1OC(=O)CC(O)C(C)C(OC2OC(C)C(O)C(N(C)C)C2O)C(CCN2CCCC2)CC(C)C(=O)C=CC(C)=CC1COC1OC(C)C(O)C(OC)C1OC (centres unmarked) [Compound D1, 20-DH-DO-20-(pyrrolidin-1-yl)desmycosin]",2,2,2,2,2,1,1,0.5,32,16,16,16,> 128,> 128,128,16,12.5,12.5,50,0.39,"MIC [21]: 6.25 µg/mL; MIC [22]: 6.25 µg/mL; MIC [23]: 6.25 µg/mL; MIC [24]: 0.78 µg/mL; MIC [25]: 6.25 µg/mL; ED50 ([26]; C203, Oral): > 50 mg/kg; ED50 ([26]; C203, sc, Subcutaneous): 1.2 mg/kg; Number of Deaths/Number Treated [27]: 0/10; Number of Deaths/Number Treated [28]: 9/10; pKa ([29]; Titratable groups): 9.5; pKa [29, 30]: 7.9"
"CCC1OC(=O)CC(O)C(C)C(OC2OC(C)C(O)C(N(C)C)C2O)C(CCN2CCCCC2)CC(C)C(=O)C=CC(C)=CC1COC1OC(C)C(O)C(OC)C1OC (centres unmarked) [Compound D2, 20-DH-DO-20-(piperidin-1-yl)desmycosin]",0.5,0.5,1,0.5,1,0.5,0.25,0.25,16,16,16,16,> 128,> 128,16,16,3.12,12.5,> 50,0.78,"MIC [21]: 3.12 µg/mL; MIC [22]: 25 µg/mL; MIC [23]: 6.25 µg/mL; MIC [24]: 0.78 µg/mL; MIC [25]: 6.25 µg/mL; ED50 ([26]; C203, Oral): 50 mg/kg; ED50 ([26]; C203, sc, Subcutaneous): 0.9 mg/kg; Number of Deaths/Number Treated [27]: 0/10; Number of Deaths/Number Treated [28]: 5/10; pKa ([29]; Titratable groups): 9.1; pKa [29, 30]: 7.8"
"CCC1OC(=O)CC(O)C(C)C(OC2OC(C)C(O)C(N(C)C)C2O)C(CCN2CCCCCC2)CC(C)C(=O)C=CC(C)=CC1COC1OC(C)C(O)C(OC)C1OC (centres unmarked) [Compound D5, 20-DH-DO-20-(Hexahydroazepin-1-yl)desmycosin]",0.5,0.5,1,0.25,0.5,0.12,0.5,0.5,8,8,16,128,128,4,8,> 128,1.56,1.56,50,0.39,"MIC [21]: 1.56 µg/mL; MIC [22]: 3.12 µg/mL; MIC [23]: 3.12 µg/mL; MIC [24]: 1.56 µg/mL; MIC [25]: 3.12 µg/mL; ED50 ([26]; C203, Oral): 50 mg/kg; ED50 ([26]; C203, sc, Subcutaneous): 1.3 mg/kg; Number of Deaths/Number Treated [27]: 0/10; Number of Deaths/Number Treated [28]: 2/10; pKa ([29]; Titratable groups): 9.6; pKa [29, 30]: 7.9"
"CCC1OC(=O)CC(O)C(C)C(OC2OC(C)C(O)C(N(C)C)C2O)C(CCN2CCCCCCCC2)CC(C)C(=O)C=CC(C)=CC1COC1OC(C)C(O)C(OC)C1OC (centres unmarked) [Compound D7, 20-DH-DO-20-(octahydro-1H-azonin-1-yl)desmycosin]",0.5,0.5,0.5,0.5,0.5,0.25,0.06,0.5,4,8,16,16,64,64,16,> 128,0.39,1.56,25,0.39,"MIC [21]: 3.12 µg/mL; MIC [22]: 6.25 µg/mL; MIC [23]: 6.25 µg/mL; MIC [24]: 1.56 µg/mL; MIC [25]: 3.12 µg/mL; ED50 ([26]; C203, Oral): 12 mg/kg; ED50 ([26]; C203, sc, Subcutaneous): 1.6 mg/kg; Number of Deaths/Number Treated [27]: 3/10; Number of Deaths/Number Treated [28]: 2/10; pKa ([29]; Titratable groups): 9; pKa [29, 30]: 7.9"
